Data on 23 molecules can be found in patent publication US8461120B2, “Macrocyclic compounds pounds and methods of use thereof” (Synovo GmbH, priority 2004, dated 2013).

Holding throughout (format): cell-based
One test relates to IFNg. Nature of the test: Suppression of pro-inflammatory responses in isolated cells: IFNg. As to conditions: for activity at 8 µM: read-out: IFNg (% control) at 8 μM.
The subject of another test is NO. Nature of the test: Suppression of pro-inflammatory responses in isolated cells: NO. As to conditions: for activity at 8 µM: read-out: NO (% control) at 8 μM; for Potency in NO suppression vs. Dexamethasone: relative to Dexamethasone.
The next test relates to KC. Nature of the test: LPS-stimulated mouse whole blood, production of the chemotactic cytokine KC (bioplex). As to conditions: Neutrophil, 1.5 h; fresh mouse whole blood stimulated by LPS, incubated 90 minutes; read-out: EC50 of modulation of the neutrophil migration factor KC. As to the method: FIG. 2. is a graph showing the response of murine blood cells to varying concentrations of a compound of the invention (see Example 31) based on the production of the chemotactic cytokine “KC”. Fresh mouse whole blood was stimulated by LPS and incubated for 90 minutes. KC was quantified by bioplex.

`C[C@@H]1C[C@H]2[C@@H]3CCC4=CC(=O)C=C[C@]4(C)[C@@]3(F)[C@@H](O)C[C@]2(C)[C@@]1(O)C(=O)CO` [Dexamethasone, reference compound]: the activity at 8 µM in the test on IFNg stood at 4.3%; with NO it was 3.4%.

Consider `CC[C@H]1OC(=O)[C@H](C)[C@@H](O[C@H]2C[C@@](C)(OC)[C@@H](O)[C@H](C)O2)[C@H](C)[C@@H](O[C@@H]2O[C@H](C)CC(N(C)CC(O)CNCCCCN)[C@H]2O)[C@](C)(O)C[C@@H](C)CN(C)[C@H](C)[C@@H](O)[C@]1(C)O` (stereo partly shown) [Example 29], for which the “Potency in NO suppression vs. Dexamethasone” value in the test with NO turned out to be 0.6.

In the case of `CCCCCCCCNCC(O)CN(C)C1C[C@@H](C)O[C@@H](O[C@@H]2[C@@H](C)[C@H](O[C@H]3C[C@@](C)(OC)[C@@H](O)[C@H](C)O3)[C@@H](C)C(=O)O[C@H](CC)[C@@](C)(O)[C@H](O)[C@@H](C)N(C)C[C@H](C)C[C@@]2(C)O)[C@@H]1O` (stereo partly shown) [Example 31], the EC50 in the test with KC was approximately 100 nM. Further, the figures for the activity at 8 µM in the test with IFNg and in the test with NO were 4.4% and 4.7%, respectively.

`CCCCCNCC(O)CN(C)C1C[C@@H](C)O[C@@H](O[C@@H]2[C@@H](C)[C@H](O[C@H]3C[C@@](C)(OC)[C@@H](O)[C@H](C)O3)[C@@H](C)C(=O)O[C@H](CC)[C@@](C)(O)[C@H](O)[C@@H](C)N(C)C[C@H](C)C[C@@]2(C)O)[C@@H]1O` (stereo partly shown) [Example 32]: the activity at 8 µM turned out to be 3.7% in the test on IFNg and 6.8% in the test with NO.

For `CCCCC(CC)CNCC(O)CN(C)C1C[C@@H](C)O[C@@H](O[C@@H]2[C@@H](C)[C@H](O[C@H]3C[C@@](C)(OC)[C@@H](O)[C@H](C)O3)[C@@H](C)C(=O)O[C@H](CC)[C@@](C)(O)[C@H](O)[C@@H](C)N(C)C[C@H](C)C[C@@]2(C)O)[C@@H]1O` (stereo partly shown) [Example 33], the results for the activity at 8 µM in the test on IFNg and with NO were 3.8% and 3.2%, respectively.

As for `CC[C@H]1OC(=O)[C@H](C)[C@@H](O[C@H]2C[C@@](C)(OC)[C@@H](O)[C@H](C)O2)[C@H](C)[C@@H](O[C@@H]2O[C@H](C)CC(N(C)CC(O)CNCC(OC)OC)[C@H]2O)[C@](C)(O)C[C@@H](C)CN(C)[C@H](C)[C@@H](O)[C@]1(C)O` (stereo partly shown) [Example 35], the “Potency in NO suppression vs. Dexamethasone” value in the test with NO was found to be 0.5.

For `CC[C@H]1OC(=O)[C@H](C)[C@@H](O[C@H]2C[C@@](C)(OC)[C@@H](O)[C@H](C)O2)[C@H](C)[C@@H](O[C@@H]2O[C@H](C)CC(N(C)CC(O)CNc3ncc(C)s3)[C@H]2O)[C@](C)(O)C[C@@H](C)CN(C)[C@H](C)[C@@H](O)[C@]1(C)O` (stereo partly shown) [Example 41], the “Potency in NO suppression vs. Dexamethasone” value in the test with NO was determined as 0.5.

Consider `CC[C@H]1OC(=O)[C@H](C)[C@@H](O[C@H]2C[C@@](C)(OC)[C@@H](O)[C@H](C)O2)[C@H](C)[C@@H](O[C@@H]2O[C@H](C)CC(N(C)CC(O)CNc3cc(C)ccn3)[C@H]2O)[C@](C)(O)C[C@@H](C)CN(C)[C@H](C)[C@@H](O)[C@]1(C)O` (stereo partly shown) [Example 42], for which, in the test with NO, the “Potency in NO suppression vs. Dexamethasone” value stood at 0.8.

For `CC[C@H]1OC(=O)[C@H](C)[C@@H](O[C@H]2C[C@@](C)(OC)[C@@H](O)[C@H](C)O2)[C@H](C)[C@@H](O[C@@H]2O[C@H](C)CC(N(C)CC(O)CN3CCC(O)CC3)[C@H]2O)[C@](C)(O)C[C@@H](C)CN(C)[C@H](C)[C@@H](O)[C@]1(C)O` (stereo partly shown) [Example 47], the “Potency in NO suppression vs. Dexamethasone” value in the test with NO came out at 0.5.

With `CCCCN(CCCC)CCCNCC(O)CN(C)C1C[C@@H](C)O[C@@H](O[C@@H]2[C@@H](C)[C@H](O[C@H]3C[C@@](C)(OC)[C@@H](O)[C@H](C)O3)[C@@H](C)C(=O)O[C@H](CC)[C@@](C)(O)[C@H](O)[C@@H](C)N(C)C[C@H](C)C[C@@]2(C)O)[C@@H]1O` (stereo partly shown) [Example 49], the activity at 8 µM was found to be 4.3% with IFNg and 48.2% with NO.

As to `CCCN(CCO)CC(O)CN(C)C1C[C@@H](C)O[C@@H](O[C@@H]2[C@@H](C)[C@H](O[C@H]3C[C@@](C)(OC)[C@@H](O)[C@H](C)O3)[C@@H](C)C(=O)O[C@H](CC)[C@@](C)(O)[C@H](O)[C@@H](C)N(C)C[C@H](C)C[C@@]2(C)O)[C@@H]1O` (stereo partly shown) [Example 50], the activity at 8 µM in the test with IFNg was 4%; in the test on NO, 3.9%.

For `CC[C@H]1OC(=O)[C@H](C)[C@@H](O[C@H]2C[C@@](C)(OC)[C@@H](O)[C@H](C)O2)[C@H](C)[C@@H](O[C@@H]2O[C@H](C)CC(N(C)CC(O)CN3CCN(C=O)CC3)[C@H]2O)[C@](C)(O)C[C@@H](C)CN(C)[C@H](C)[C@@H](O)[C@]1(C)O` (stereo partly shown) [Example 56], the “Potency in NO suppression vs. Dexamethasone” value in the test on NO is reported as 0.6.

As for `CC[C@H]1OC(=O)[C@H](C)[C@@H](O[C@H]2C[C@@](C)(OC)[C@@H](O)[C@H](C)O2)[C@H](C)[C@@H](O[C@@H]2O[C@H](C)CC(N(C)CC(O)COc3cccc(O)c3)[C@H]2O)[C@](C)(O)C[C@@H](C)CN(C)[C@H](C)[C@@H](O)[C@]1(C)O` (stereo partly shown) [Example 59], the activity at 8 µM in the test with IFNg was 96.9%; with NO, 99.2%.

Consider `CC[C@H]1OC(=O)[C@H](C)[C@@H](O[C@H]2C[C@@](C)(OC)[C@@H](O)[C@H](C)O2)[C@H](C)[C@@H](O[C@@H]2O[C@H](C)CC(N(C)CC(O)COc3ccc(OC)cc3)[C@H]2O)[C@](C)(O)C[C@@H](C)CN(C)[C@H](C)[C@@H](O)[C@]1(C)O` (stereo partly shown) [Example 60], for which the activity at 8 µM in the test on IFNg is 5.7%; in the test with NO, 33.7%.

`CC[C@H]1OC(=O)[C@H](C)[C@@H](O[C@H]2C[C@@](C)(OC)[C@@H](O)[C@H](C)O2)[C@H](C)[C@@H](O[C@@H]2O[C@H](C)CC(N(C)CC(O)COc3ccc(B(O)O)cc3)[C@H]2O)[C@](C)(O)C[C@@H](C)CN(C)[C@H](C)[C@@H](O)[C@]1(C)O` (stereo partly shown) [Example 61]: the activity at 8 µM with IFNg is 15.6%; in the test on NO, 74.2%.

On to `CC[C@H]1OC(=O)[C@H](C)[C@@H](O[C@H]2C[C@@](C)(OC)[C@@H](O)[C@H](C)O2)[C@H](C)[C@@H](O[C@@H]2O[C@H](C)CC(N(C)CC(O)COc3ccc(C(=O)OC)cc3)[C@H]2O)[C@](C)(O)C[C@@H](C)CN(C)[C@H](C)[C@@H](O)[C@]1(C)O` (stereo partly shown) [Example 62], for which the activity at 8 µM turned out to be 5.3% in the test with IFNg and 63.4% in the test with NO.

On to `CC[C@H]1OC(=O)[C@H](C)[C@@H](O[C@H]2C[C@@](C)(OC)[C@@H](O)[C@H](C)O2)[C@H](C)[C@@H](O[C@@H]2O[C@H](C)CC(N(C)CC(O)COC(=O)CNC(=O)OC(C)(C)C)[C@H]2O)[C@](C)(O)C[C@@H](C)CN(C)[C@H](C)[C@@H](O)[C@]1(C)O` (stereo partly shown) [Example 63], for which the activity at 8 µM in the test with IFNg was determined as 4.4%; in the test on NO, 3.9%.

On to `CC[C@H]1OC(=O)[C@H](C)[C@@H](O[C@H]2C[C@@](C)(OC)[C@@H](O)[C@H](C)O2)[C@H](C)[C@@H](O[C@@H]2O[C@H](C)CC(N(C)CC(O)COC(=O)c3nccc4ccccc34)[C@H]2O)[C@](C)(O)C[C@@H](C)CN(C)[C@H](C)[C@@H](O)[C@]1(C)O` (stereo partly shown) [Example 65], for which the results for the activity at 8 µM in the test with IFNg and with NO were 30.9% and 77.6%, respectively.

Regarding `CCC1OC(=O)C(C)C(OC2CC(C)(OC)C(O)C(C)O2)C(C)C(OC2OC(C)CC(N(C)CC3CO3)C2O)C(C)(O)CC(C)C(=O)C(C)C(O)C1(C)O` (stereo not shown) [Example 67, 3′-N-demethyl-3′-N-(oxiranylmethyl)erythromycin], the “IFNg (% control) at 8 μM” value in the test on IFNg is given as 6.0 % control. For the same molecule, the “NO (% control) at 8 μM” value in the test with NO was 70.0 % control.

Regarding `CC[C@H]1OC(=O)[C@H](C)[C@@H](OC2C[C@@](C)(OC)[C@@H](O)[C@H](C)O2)C[C@@H](OC2O[C@H](C)C[C@H](N(C)CC(O)CNc3ncc(C)s3)[C@H]2O)[C@](C)(O)C[C@@H](C)C(=O)[C@H](C)[C@@H](O)[C@]1(C)O` (stereo partly shown) [Example 68], the activity at 8 µM in the test with IFNg stood at 4.3%; in the test on NO, 2.9%.

As to `CC[C@H]1OC(=O)[C@H](C)C2(O)O[C@@](C)(C[C@@H](C)CN(C)[C@H](C)[C@@H](O)[C@]1(C)O)[C@H](O[C@@H]1O[C@H](C)CC(N(C)CC(O)COC(=O)c3cnc4ccccc4c3)C1O)[C@H]2C` (stereo partly shown) [Example 75], the results for the activity at 8 µM with IFNg and in the test with NO were 88.8% and 96.8%, respectively.

As for `CC[C@H]1OC(=O)[C@H](C)[C@@H](OC2CC(C)(OC)C(O)C(C)O2)[C@H](C)[C@@H](OC2OC(C)CC(NC)C2O)C(C)(O)C[C@@H](C)C(=O)[C@H](C)[C@@H](O)C1(C)O` (stereo partly shown) [desmethyl erythromycin, reference compound], the “IFNg (% control) at 8 μM” value in the test on IFNg came out at 6.3 % control. For the same molecule, the “NO (% control) at 8 μM” value in the test on NO is given as 37.1 % control.

In the case of descladinosyltetraacetal azithromycin, the “Potency in NO suppression vs. Dexamethasone” value in the test on NO was 0.6.
